Reference: paper PMC7845692 (Frontiers in Pharmacology, 2020)
Read-outs that look alike come from different tables or passages of the source.

Legend:
Human coronavirus OC43 = experiment: HCoV-OC43 immunofluorescent assay (IFA) against N protein in HCT-8 cells; assay type: cell-based; details: for EC50: read-out: Human coronavirus OC43 EC50 (IFA); for Human coronavirus OC43 Selectivity index: CC50/EC50, HCT-8 cells
[1] = HCT-8 cell viability (MTS); details: human
[2] = cell cytotoxicity by visualization (FIPV host cells); details: cat
Method: (§1) The serotype II FIPV Taiwan isolate NTU156 strain, a kind gift from National Taiwan University, was propagated and titrated in Fcwf-4 cells ([Lin et al., 2009]). The EC50 for anti-FIPV activity and CC50 for cell cytotoxicity were determined as previously described ([Yang et al., 2020b]).

[3] = tested on: Feline infectious peritonitis virus; experiment: anti-FIPV activity, cytopathic effect by visualization in Fcwf-4 cells; details: for EC50: Alphacoronavirus 1, read-out: Feline infectious peritonitis virus EC50 CPE/visualization
Method: as §1

HCoV-OC43 = HCoV-OC43 viral yield, end point dilution assay / TCID50; assay type: cell-based, Human coronavirus OC43
in vitro = details: human
SARS-CoV-2 = experiment: microbe, parasite or virus in culture; assay type: cell-based; details: Severe acute respiratory syndrome coronavirus 2, Vero C1008; Vero E6 cells, 5–7 days, Figure 5B-b; read-out: SARS-CoV-2 plaque assay EC50
[4] = Betacoronavirus 1, OC43, HCT-8, 72 h
[5] = Betacoronavirus 1, OC43, HCT-8 cells, MOI 0.05, 72 h.p.i., means ± SD

**Q.** With `COc1cc2c3c(c4cc(OC)c(OC)c(OC)c4c2cc1OC)CC1CCC[N+]1([O-])C3` (centres unmarked) [031p13-3] as the compound, how does the EC50 (Human coronavirus OC43; [4]) read?
**A.** 1890 ± 228 nM

**Q.** What about the “Human coronavirus OC43 Selectivity index” value (Human coronavirus OC43) of the same compound?
**A.** >5.3

**Q.** What about the CC50 at 72 h ([1]; HCT-8 cells) of the same compound?
**A.** > 10000 nM

**Q.** And the CC50 [2]?
**A.** > 50000 nM

**Q.** What about the EC50 [3] of the same compound?
**A.** 1560 nM

**Q.** What about the “Feline infectious peritonitis virus Selectivity index” value ([3]; CC50/EC50, Fcwf-4 cells) of the same compound?
**A.** >32.1

**Q.** Which EC50 (Human coronavirus OC43; [4]) does the source give for `C[C@]12CC[C@H](O)C[C@H]1CC[C@@H]1[C@@H]2CC[C@]2(C)[C@@H](c3ccc(=O)oc3)CC[C@]12O` [Bufalin, bufalin, reference compound] here?
**A.** 56 ± 4 nM

**Q.** And the “Human coronavirus OC43 Selectivity index” value (Human coronavirus OC43)?
**A.** 16.1

**Q.** And the “concentration of maximum reduction of HCoV-OC43 viral yield” value (HCoV-OC43)?
**A.** 100 nM

**Q.** What about the “maximum reduction of HCoV-OC43 viral yield” value (HCoV-OC43) of the same compound?
**A.** 2–3 orders of magnitudes

**Q.** And the CC50 at 72 h [1]?
**A.** 900 ± 180 nM

**Q.** What about the CC50 [2] of the same compound?
**A.** 542 ± 213 nM

**Q.** What about the EC50 [3] of the same compound?
**A.** 19 ± 9 nM

**Q.** And the “Feline infectious peritonitis virus Selectivity index” value ([3]; CC50/EC50, Fcwf-4 cells)?
**A.** 28.5

**Q.** With `C[C@]12CC[C@H](O)C[C@H]1CC[C@@H]1[C@@H]2CC[C@]2(C)[C@@H](C3=CC(=O)OC3)CC[C@]12O` [Digitoxigenin, digitoxigenin] as the compound, how does the EC50 (Human coronavirus OC43; [4]) read?
**A.** 323 ± 20 nM

**Q.** What about the “Human coronavirus OC43 Selectivity index” value (Human coronavirus OC43) of the same compound?
**A.** >7.7

**Q.** What about the CC50 at 72 h [1] of the same compound?
**A.** > 2500 nM

**Q.** And the CC50 [2]?
**A.** 3560 ± 375 nM

**Q.** What about the EC50 [3] of the same compound?
**A.** 458 ± 18 nM

**Q.** What about the “Feline infectious peritonitis virus Selectivity index” value ([3]; CC50/EC50, Fcwf-4 cells) of the same compound?
**A.** 7.8

**Q.** Which EC50 (Human coronavirus OC43; [5]) does the source give for `C[C@H]1O[C@@H](O[C@H]2[C@@H](O)C[C@H](O[C@H]3[C@@H](O)C[C@H](O[C@H]4CC[C@@]5(C)[C@H](CC[C@@H]6[C@@H]5C[C@@H](O)[C@]5(C)[C@@H](C7=CC(=O)OC7)CC[C@]65O)C4)O[C@@H]3C)O[C@@H]2C)C[C@H](O)[C@@H]1O` [Digoxin, digoxin] here?
**A.** 269 ± 45 nM

**Q.** And the “Human coronavirus OC43 Selectivity index” value (Human coronavirus OC43)?
**A.** 5.2

**Q.** What about the CC50 (in vitro) of the same compound?
**A.** 1400 ± 350 nM

**Q.** What about the CC50 [2] of the same compound?
**A.** 1190 ± 603 nM

**Q.** What about the “Feline infectious peritonitis virus Selectivity index” value [3] of the same compound?
**A.** 5.6

**Q.** And the EC50 [3]?
**A.** 212 ± 96 nM

**Q.** Which EC50 (Human coronavirus OC43; [4]) does the source give for `N#C[C@@]1(c2ccc3c(N)ncnn23)O[C@H](CO)[C@@H](O)[C@H]1O` [GS441524, GS-441524] here?
**A.** 6930 nM

**Q.** And the “Human coronavirus OC43 Selectivity index” value (Human coronavirus OC43)?
**A.** >7.2

**Q.** And the EC50 (SARS-CoV-2)?
**A.** 860 ± 29.2 nM

**Q.** And the CC50 at 72 h (in vitro)?
**A.** > 50000 nM

**Q.** What does the source list for `CO[C@H]1C[C@H](O[C@H]2CC[C@@]3(C)[C@H](CC[C@@H]4[C@@H]3CC[C@]3(C)[C@@H](C5=CC(=O)OC5)[C@@H](OC(C)=O)C[C@]43O)C2)O[C@@H](C)[C@@H]1O` [Oleandrin, oleandrin]?
**A.** EC50 (Human coronavirus OC43; [5]): 56 ± 5 nM; Human coronavirus OC43 Selectivity index (Human coronavirus OC43): 3.8; maximum reduction of HCoV-OC43 viral yield (HCoV-OC43): 2–3 orders of magnitudes; concentration of maximum reduction of HCoV-OC43 viral yield (HCoV-OC43; HCT-8, MOI 0.05, reduction ∼2–3 orders of magnitude): 30 nM; CC50 (in vitro): 211 ± 62 nM; CC50 [2]: 2850 ± 1070 nM; EC50 [3]: 729 ± 244 nM; Feline infectious peritonitis virus Selectivity index ([3]; CC50/EC50, Fcwf-4 cells): 3.9
